Entries after “also recorded” stand apart in the source; their conditions may differ. Where a SMILES comes first, the peptide text is derived from it. [ ]: non-standard residue; d: D form. αMeP = C[C@@]1(C(=O)O)CCCN1
How the values were obtained:
[1] = test system: MeCP2 knockdown Xenopus laevis tadpoles; assay: alpha-tubulin acetylation and cilia in tissues of MeCP2 knockdown tadpoles; type: in vivo
Description: Xenopus laevis tadpoles having an MeCP2 knockdown were generated using CRISPR-Cas9 technology. Xenopus embryos were fertilized and maintained at 14° C. until the 4-cell stage. Each cell was injected with ˜2 nL ribonucleoprotein (a mixture of sgRNAs targeting the MeCP2 gene and Cas9 enzyme). No adverse effects to development were observed, as all embryos developed to the swimming tadpole stages (Nieuwkoop-Faber stages 45-50) with no apparent loss of viability or morphological defect.
Specifically, tadpole tissues were assessed for alpha-tubulin acetylation and bidirectional shifts in acetylation patterns were observed depending on the tissue type.

[2] = test system: MeCP2 knockdown Xenopus laevis tadpoles; assay: Tadpole viability in the MeCP2 knockdown model; type: in vivo; conditions: for tadpole viability: MeCP2 knockdown model, FIGS. 6A-6B; for animals survived until Day 10: MeCP2 knockdown tadpoles, no vehicle-treated animal survived beyond Day 6
Description: 100% of MeCP2 knockdown animals treated with vorinostat survived until Day 10; over 50% of MeCP2 knockdown animals treated with trofinetide survived until Day 10. Conversely, none of the MeCP2 knockdown animals treated with vehicle survived beyond Day 6.

Naïve C57BL6 mice = assay: Elevated Plus Maze test; type: in vivo, mouse; conditions: FIGS. 11A-11B
[3] = test system: MeCP2-knockdown (MeCP2−/Y) mice; assay: MeCP2 knockdown mouse study, daily i.p. treatment from p31; type: in vivo; conditions: vorinostat 50 mg/kg i.p. daily, relative to vehicle-treated MeCP2-knockdown mice
Description: Wild-type and MeCP2-knockdown (MeCP2^−/Y) mice (a Rett mouse model) were treated starting at day 31 post-partum (p31) via daily intraperitoneal (i.p.) administration of trofinetide (100 mg/kg) or vorinostat (50 mg/kg) until day 51 of age (FIG. 7A). Behavorial assays were performed at days 35-39 and days 49-53, before sacrificing the mice and harvesting organs at day 54.

[4] = test system: MeCP2 knockdown Xenopus laevis tadpoles; assay: Seizure Score in MeCP2 knockdown tadpoles; type: in vivo; conditions: MeCP2 knockdown tadpoles treated Day 1 to Day 6, relative to vehicle
Description: Seizure Score data for wild-type and MeCP2 knockdown was collected for Xenopus laevis tadpoles treated with drug (trofinetide or vorinostat) or vehicle from Day 1 to Day 6, after which they were placed back in medium.

[5] = test system: MeCP2-knockdown (MeCP2-/Y) mice; assay: MeCP2 knockdown mouse study, treatment after onset of symptoms (oral vorinostat); type: in vivo; conditions: for survival after 3 weeks of treatment: MeCP2-knockdown animals; for colocalization of acetylated a-tubulin with neuronal staining in the colon: bIII- and acetylated alpha-tubulin staining; for colon vacuolization and neutrophil infiltrate (histology): colon sections of MeCP2-knockdown animals; for overall mobility scores (mobility, gait, hindlimb clasping) / diarrhea scores: relative to vehicle-treated MeCP2-knockdown animals; for overall mobility scores (mobility, gait, hindlimb clasping): FIG. 9B; for diarrhea scores: FIG. 9C
Description: Mice were treated with either trofinetide or vorinostat, and change in animal weight (g) and Cumulative Severity Score were assessed.
MeCP2-knockdown (MeCP2-/Y) mice were dosed approximately one week after the onset of symptoms with an oral formulation of vorinostat.
Additionally, the overall mobility scores (based on mobility, gait, and hindlimb clasping) and the diarrhea scores were improved for MeCP2-knockdown animals treated with vorinostat and trofinetide, relative to vehicle-treated MeCP2-knockdown animals (FIG. 9B and 9C, respectively). […] There was also an overall increase of hyperacetylated a-tubulin in bronchioles of MeCP2-Vy animals that vorinostat restored (FIG. 9E). Finally, vorinostat treatment rescued the disrupted a-tubulin acetylation observed in femoral muscle sections (FIG. 9F).
Initial histological analysis of the colon indicated a greater degree of vacuolization and heightened neutrophil infiltrate in MeCP2-knockdown animals, which vorinostat and trofinetide reversed. […] Vorinostat also normalized the ratio of acetylated alpha-tubulin to bIII-tubulin (FIG. 9G).

[6] = test system: MeCP2 knockdown Xenopus laevis; assay: Tongue thickness and GI tract ib4+ staining in MeCP2 knockdown tadpoles; type: in vivo
Description: Treatment with vorinostat in Xenopus laevis also had impacts on GI tract inflammation and nociceptive innervation. The role of MeCP2 knockdown in GI tract inflammation and nociceptive innervation by staining for isolectin B4-positive (ib4+) cells.

SMILES: O=C(CCCCCCC(=O)Nc1ccccc1)NO [vorinostat, N′-hydroxy-N-phenyloctanediamide]
- a-tubulin hyperacetylation in the GI tract ([1]; FIG. 2C): reversed that hyperacetylation
- hyper-acetylation in olfactory multi-ciliated cells ([1]; microtubules and alpha-tubulin): reverses hyper-acetylation
- effects related to microtubules and cilia length ([1]; nostril multiciliated cells, FIGS. 2A-2B): reversed those effects
- tadpole viability [2]: improves Xenopus laevis tadpole viability
- tadpole viability ([2]; listed as Vorinostat): improve Xenopus laevis tadpole viability
- animals survived until Day 10 [2]: 100%
- behavior in anxiety, activity and novelty seeking (Naïve C57BL6 mice): restored behavior in anxiety, activity and novelty seeking; also recorded: restores naïve C57BL6 behavior
- neurological function (elevated plus maze and spatial novelty Y-maze performance) ([3]; FIG. 7D): improved neurological function
- diarrhea score ([3]; FIG. 7E): improved diarrhea score
- seizures (Seizure Score) [4]: reduced seizures
- hyperacetylated a-tubulin in bronchioles ([5]; FIG. 9E): restored
- a-tubulin acetylation in femoral muscle sections ([5]; FIG. 9F): rescued
- survival after 3 weeks of treatment [5]: 100%
- colocalization of acetylated a-tubulin with neuronal staining in the colon [5]: normalized
- colon vacuolization and neutrophil infiltrate (histology) [5]: reversed
- ratio of acetylated alpha-tubulin to bIII-tubulin ([5]; colon, FIG. 9G): normalized
- breathing (score) ([5]; compared to trofinetide and vehicle treatments, FIG. 9D): significantly improved
- performance in EPM and Y mazes ([5]; oral vorinostat 50 mg/kg): increased performance
- weight gain ([5]; oral vorinostat 50 mg/kg): ameliorated weight gain
- Cumulative Severity Score / symptom severity score ([5]; oral vorinostat 50 mg/kg, mice treated at 35 days of age after onset of severe symptoms, FIG. 9A): more effective than trofinetide; also recorded: prevented significant worsening
- overall mobility scores (mobility, gait, hindlimb clasping) [5]: improved
- diarrhea scores [5]: improved
- tongue thickness ([6]; MeCP2 knockdown animals, FIG. 3A): restored normal tongue thickness; also recorded: restores normal tongue vertical thickness
- ib4+ expression in the GI tract ([6]; MeCP2 knockdown tadpoles, isolectin B4 staining, FIG. 3B): reversed that ib4+ expression; also recorded: restores normal ib4+ expression

SMILES: C[C@@]1(C(=O)N[C@@H](CCC(=O)O)C(=O)O)CCCN1C(=O)CN [trofinetide, (2S)-2-[[(2S)-1-(2-aminoacetyl)-2-methylpyrrolidine-2-carbonyl]amino]pentanedioic acid] (H-Gly-[αMeP]-Glu-OH)
- animals survived until Day 10 [2]: over 50%
- seizures (Seizure Score) [4]: reduced seizures
- survival after 3 weeks of treatment [5]: about 60%
- colocalization of acetylated a-tubulin with neuronal staining in the colon [5]: normalized
- colon vacuolization and neutrophil infiltrate (histology) [5]: reversed
- overall mobility scores (mobility, gait, hindlimb clasping) [5]: improved
- diarrhea scores [5]: improved
